Data published in ChEMBL document CHEMBL1143215, “Orally active esters of dihydroartemisinin: Synthesis and antimalarial activity against multidrug-resistant Plasmodium yoelii in mice” (Bioorg Med Chem Lett, 2008).
Activity calls are given as the source filed them. The rule behind the calls is not given here.

Key:
[1] = system: Plasmodium yoelii nigeriensis; test: Reduced parasitemia in multidrug-resistant Plasmodium yoelii nigeriensis infected Swiss mice (Mus musculus) at 12 mg/kg peroral dose after 4 days; assay type: functional; parameters: scale not given: the % may be the effect or the level left; conditions: route oral
[2] = Partition coefficient, log P of the compound; assay type: physicochemical; conditions: octanol/water
[3] = system: Plasmodium yoelii nigeriensis; test: Reduced parasitemia in multidrug-resistant Plasmodium yoelii nigeriensis infected Swiss mice (Mus musculus) at 48 mg/kg peroral dose after 4 days; assay type: functional; parameters: scale not given: the % may be the effect or the level left; conditions: route oral
[4] = Chemical stability in acidic solution containing tetrahydrofuran and 10% aqueous HCl after 96 hrs; assay type: physicochemical; conditions: acidic solution of tetrahydrofuran and 10% aqueous HCl; read-out: Stability
[5] = system: Plasmodium yoelii nigeriensis; test: Antimalarial activity as reduced parasitemia day 4 against multidrug-resistant Plasmodium yoelii nigeriensis infected Swiss mice (Mus musculus) at 24 mg/kg/day peroral dose over 4 days; assay type: functional; parameters: scale not given: the % may be the effect or the level left; conditions: route oral
[6] = system: Plasmodium yoelii nigeriensis; test: Survival in multidrug-resistant Plasmodium yoelii nigeriensis infected Swiss mice (Mus musculus) at 12 mg/kg peroral dose after 28 days; assay type: functional

Row | Structure (SMILES) | Activity [1] | logP [2] | Activity [3] | remaining at 96 h [4] | Activity [5] | Activity ([6]; route oral) | Activity [6]
1 | C[C@H]1[C@H](OC(=O)C2c3ccccc3-c3ccccc32)O[C@@H]2O[C@]3(C)CC[C@H]4[C@H](C)CC[C@@H]1[C@@]24OO3 | 100% | 6.61 | 100% | 80% | 100% | – | –
2 | C[C@H]1[C@H](OC(=O)CC23CC4CC(CC(C4)C2)C3)O[C@@H]2O[C@]3(C)CC[C@H]4[C@H](C)CC[C@@H]1[C@@]24OO3 | 100% | 5.99 | 100% | – | 100% | 20% | –
3 | C[C@H]1[C@H](OC(=O)CC2C3CC4CC(C3)CC2C4)O[C@@H]2O[C@]3(C)CC[C@H]4[C@H](C)CC[C@@H]1[C@@]24OO3 (some centres not stated) | 100% | 5.85 | 100% | – | 100% | – | –
4 | C[C@H]1[C@H](OC(=O)CCC(=O)O)O[C@@H]2O[C@@]3(C)CC[C@H]4[C@H](C)CC[C@@H]1[C@@]24OO3 [ARTESUNATE] | – | – | 100% | – | 100% | – | –
5 | C[C@H]1[C@H](OCc2ccc(-c3ccccc3)cc2)O[C@@H]2O[C@]3(C)CC[C@H]4[C@H](C)CC[C@@H]1[C@@]24OO3 | 100% | – | – | – | – | – | –
6 | C[C@H]1[C@H](OC(=O)COc2ccc(-c3ccccc3)cc2)O[C@@H]2O[C@]3(C)CC[C@H]4[C@H](C)CC[C@@H]1[C@@]24OO3 | 100% | 6.53 | 100% | – | 100% | – | –
7 | C[C@H]1[C@H](OC(=O)C23CC4CC(CC(C4)C2)C3)O[C@@H]2O[C@]3(C)CC[C@H]4[C@H](C)CC[C@@H]1[C@@]24OO3 | 100% | 6.05 | 100% | – | 100% | – | –
8 | C[C@H]1[C@H](OC(=O)Cc2ccc(-c3ccccc3)cc2)O[C@@H]2O[C@]3(C)CC[C@H]4[C@H](C)CC[C@@H]1[C@@]24OO3 | – | 6.89 | 100% | – | 100% | – | –
9 | C[C@H]1[C@H](OC(=O)CC2c3ccccc3-c3ccccc32)O[C@@H]2O[C@]3(C)CC[C@H]4[C@H](C)CC[C@@H]1[C@@]24OO3 | 100% | 6.79 | 100% | – | 100% | – | inactive
10 | C[C@H]1[C@H](OC(=O)COc2ccccc2-c2ccccc2)O[C@@H]2O[C@]3(C)CC[C@H]4[C@H](C)CC[C@@H]1[C@@]24OO3 | 100% | 6.53 | 100% | – | 100% | – | –
11 | C[C@H]1[C@H](OC(=O)c2ccc(-c3ccccc3)cc2)O[C@@H]2O[C@]3(C)CC[C@H]4[C@H](C)CC[C@@H]1[C@@]24OO3 | – | 6.95 | 100% | – | 100% | – | –
12 | CCO[C@H]1O[C@@H]2O[C@@]3(C)CC[C@H]4[C@H](C)CC[C@@H]([C@H]1C)[C@@]24OO3 [ARTEMOTIL] | – | – | 100% | – | 100% | – | –
13 | C[C@H]1[C@H](OC(=O)CCC23CC4CC(CC(C4)C2)C3)O[C@@H]2O[C@]3(C)CC[C@H]4[C@H](C)CC[C@@H]1[C@@]24OO3 | 100% | 6.41 | 100% | – | 100% | – | –
14 | C[C@H]1[C@H](OCC23CC4CC(CC(C4)C2)C3)O[C@@H]2O[C@]3(C)CC[C@H]4[C@H](C)CC[C@@H]1[C@@]24OO3 | 100% | – | – | – | – | – | –
